Assay results as given in US20230339939A1 (Bayer Aktiengesellschaft, priority 2020, published 2023).

Assays:
CSNK1A1 = CSNK1A1 (Homo sapiens (Human), UniProt P48729); assay: CSNK1A1 High ATP Assay (ADP-Glo, 1 mM ATP); format: biochemical; details: median, read-out: CSNK1A1 high ATP assay IC50 [mol/l] (median)
Procedure, shortened: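 Kinase activity taken as ADP generated, quantified by ADP-Glo luminescence after 1 h ATP depletion and 1 h detection at 22 °C. Enzyme is GST–full-length human CSNK1A1 (insect cell-expressed), pre-bound to compound for 15 min, with phosphopeptide substrate and 1 mM ATP.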

CSNK1D = CSNK1D (Homo sapiens (Human), UniProt P48730); assay: CSNK1D Assay (ADP-Glo, 1 μM ATP); format: biochemical; details: median, read-out: CSNK1D IC50 [mol/l] (median)
Procedure, shortened: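 ADP-Glo luminescence reports ADP generated by GST-fused full-length human CSNK1D (insect-cell expressed, about 0.5 ng/μL) acting on a biotinylated peptide at 1 μM ATP. Test compounds were pre-bound to enzyme 15 min at 22° C in 50 mM HEPES pH 7.5.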

CSNK1D, sequence (P48730 whole entry, the tested form may be a part): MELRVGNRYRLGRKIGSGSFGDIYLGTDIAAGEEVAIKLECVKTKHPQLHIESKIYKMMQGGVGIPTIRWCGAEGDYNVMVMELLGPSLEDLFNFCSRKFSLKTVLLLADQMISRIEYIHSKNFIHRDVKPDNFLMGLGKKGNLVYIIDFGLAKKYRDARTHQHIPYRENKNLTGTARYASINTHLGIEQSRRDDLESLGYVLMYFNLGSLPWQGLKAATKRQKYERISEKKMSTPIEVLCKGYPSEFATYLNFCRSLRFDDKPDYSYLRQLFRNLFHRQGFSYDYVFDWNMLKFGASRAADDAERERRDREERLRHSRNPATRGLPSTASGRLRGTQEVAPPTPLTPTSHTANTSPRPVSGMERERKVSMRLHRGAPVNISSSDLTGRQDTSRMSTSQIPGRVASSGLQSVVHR
CSNK1A1, sequence (P48729 whole entry): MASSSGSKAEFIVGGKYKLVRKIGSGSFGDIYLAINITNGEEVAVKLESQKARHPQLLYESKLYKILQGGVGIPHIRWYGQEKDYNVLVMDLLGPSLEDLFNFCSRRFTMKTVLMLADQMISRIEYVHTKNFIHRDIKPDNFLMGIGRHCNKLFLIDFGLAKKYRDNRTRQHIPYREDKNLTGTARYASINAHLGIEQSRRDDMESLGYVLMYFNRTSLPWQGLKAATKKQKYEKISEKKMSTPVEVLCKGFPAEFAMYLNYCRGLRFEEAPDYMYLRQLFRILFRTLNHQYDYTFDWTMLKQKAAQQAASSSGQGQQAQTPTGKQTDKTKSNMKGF

Compound	IC50 (CSNK1A1)	IC50 (CSNK1D)
O=C(Cc1ccc(F)cc1)Nc1cc(-c2[nH]c3cccnc3c2-c2ncccn2)ccn1 [Example 51, 2-(4-fluorophenyl)-N-{4-[3-(pyrimidin-2-yl)-1H-pyrrolo[3,2-b]pyridin-2-yl]pyridin-2-yl}acetamide]	180 nM	20 nM
CC(C(=O)Nc1cc(-c2[nH]c3cc(Cl)cnc3c2-c2ccccn2)ccn1)c1ccc(F)cc1 (stereo not shown) [Example 52, N-{4-[6-chloro-3-(pyridin-2-yl)-1H-pyrrolo[3,2-b]pyridin-2-yl]pyridin-2-yl}-2-(4-fluorophenyl)propanamide]	382 nM	20.5 nM
